Test results: patent US10441593B2, “Treatment of pain associated with dislocation of endometrium” (PREGLEM S.A., priority 2010, dated 2019)

Test system: patients with uterine fibroids and adenomyosis or endometriosis
Test: Clinical study: 5 mg or 10 mg ulipristal on pain in patients with adenomyosis or endometriosis (Example 2)
Type: in vivo, human
Set-up: key to PBAC score at the end of treatment (week 13): PBAC score; normal <75, >100 menorrhagia; higher is worse; key to A(SF-MPQ) Score: SF-MPQ Part A pain score; lower score is better; key to B(VAS) Score / B(VAS) CFB: SF-MPQ Part B VAS pain score; lower score is better
Protocol: Different parameters were assessed before treatment (Baseline) and after the end of treatment (13 weeks): • The PBAC score (Pictorial Blood Loss Assessment Chart) gives an estimation of the menstrual blood loss. This score was measured before treatment and continuing up to week 13 of treatment. Normal menstrual bleeding score is <75. Abnormal bleeding (menorrhagia) is characterized by a PBAC score >100. Higher the score, worse is the bleeding. • The Uterine volume was estimated before treatment (Baseline Uterine volume) and the % change in uterine volume was reported at the end of the treatment (week 13). • The SF-M P QPart A (short form of the Mc Gill Pain questionnaire) was used as a measure of the sensory, affective and intensity dimensions of pain. The pain was estimated before treatment and the change was reported at the end of the treatment (week 13). (NOTE: The lowest is the score, the better it is). • The SF-MPQ Part B (short form of the Mc Gill Pain questionnaire) wherein the pain is assessed with a visual analogue scale (VAS) before treatment and the change was reported at the end of the treatment (week 13). (NOTE: The lowest is the score, the better it is). • Discomfort questionnaire (disease specific quality of life questionnaire) estimating the quality of life before treatment and the change was reported at the end of the treatment (week 13). (NOTE: The lowest is the score, the better it is). • The level of Hb (Hemoglobin) was measured before treatment and at the end of the treatment. (NOTE: the higher it is, the better it is.) 3. Results
A double-blinded, randomized, study evaluating the effect of long term oral administration of 5 mg or 10 mg ulipristal in patients with heavy menstrual bleeding and pain.
The control group consisted of patients treated with GnRH agonist.
These patients included women 36 years of age or older with evidence of uterine fibroids and adenomyosis or endometriosis diagnosed by ultrasound.
Patient 210/5252 (candidate having adenomyosis) received a daily dose of 5 mg ulipristal (Esmya®) for 13 weeks and was followed up to week 38. A myomectomy by laparotomy was conducted after Week 13 visit.
Patient 281/5214 (candidate having endometriosis) received a daily dose of 5 mg ulipristal (Esmya®) for 13 weeks and was followed up to week 38.
Patient 210/5095 (candidate having adenomyosis) received a daily dose of 10 mg ulipristal (Esmya®) for 13 weeks and was followed up to week 38. A hysterectomy by laparoscopy was conducted after Week 13 visit.
Patient 210/5308 (candidate having endometriosis) received a daily dose of 10 mg ulipristal (Esmya®) for 13 weeks and was followed up to week 38. A myomectomy by hysteroscopy was conducted after Week 13 visit.
A myomectomy by laparoscopy and hysteroscopy was conducted between Week 26 & 38 visits.
Patient 250/5090 (candidate having endometrioma) received a daily dose of 10 mg ulipristal (Esmya®) for 13 weeks and was followed up to week 38.

[1] = 5 mg/day 13 weeks, patient 210/5252, adenomyosis, Week 5
[2] = 5 mg/day 13 weeks, patient 210/5252, adenomyosis, Week 13
[3] = 5 mg/day 13 weeks, patient 210/5252, adenomyosis, Week 26 follow-up, myomectomy by laparotomy after Week 13
[4] = 5 mg/day 13 weeks, patient 210/5252, adenomyosis, Week 38 follow-up, myomectomy by laparotomy after Week 13
[5] = 5 mg/day 13 weeks, patient 210/5252, adenomyosis, week 9
[6] = 5 mg/day 13 weeks, patient 281/5214, endometriosis, Week 5
[7] = 5 mg/day 13 weeks, patient 281/5214, endometriosis, Week 13
[8] = 5 mg/day 13 weeks, patient 281/5214, endometriosis, Week 17 follow-up, no surgery
[9] = 5 mg/day 13 weeks, patient 281/5214, endometriosis, Week 26 follow-up, no surgery
[10] = 5 mg/day 13 weeks, patient 281/5214, endometriosis, Week 38 follow-up, no surgery
[11] = 5 mg/day 13 weeks, patient 281/5214, endometriosis, week 9
[12] = 10 mg/day 13 weeks, patient 210/5095, adenomyosis, Week 5
[13] = 10 mg/day 13 weeks, patient 210/5095, adenomyosis, Week 13
[14] = 10 mg/day 13 weeks, patient 210/5095, adenomyosis, Week 17 follow-up, hysterectomy by laparoscopy after Week 13
[15] = 10 mg/day 13 weeks, patient 210/5095, adenomyosis, Week 26 follow-up, hysterectomy by laparoscopy after Week 13
[16] = 10 mg/day 13 weeks, patient 210/5095, adenomyosis, Week 38 follow-up, hysterectomy by laparoscopy after Week 13
[17] = 10 mg/day 13 weeks, patient 210/5095, adenomyosis, week 9
[18] = patient 210/5095, 10 mg, adenomyosis and uterine fibroids

## CC(=O)O[C@]1(C(C)=O)CC[C@H]2[C@@H]3CCC4=CC(=O)CCC4=C3[C@@H](c3ccc(N(C)C)cc3)C[C@@]21C [Ulipristal, 17α-acetoxy-11β-[4-N,N-dimethylamino-phenyl)-19-norpregna-4,9-diene-3,20-dione]
[1]
  A(SF-MPQ) CFB: −2
  A(SF-MPQ) Score: 14
  B(VAS) CFB: 21
  B(VAS) Score: 64
  PBAC CFB: 150
  PBAC Score: 375
[2]
  % Change in Uterine Volume: 6.6%
  A(SF-MPQ) CFB: −3
  A(SF-MPQ) Score: 9
  B(VAS) CFB: −6
  B(VAS) Score: 37
  PBAC CFB: −101
  PBAC Score: 124
  Uterine Volume: 251.7 cm3
[3]
  A(SF-MPQ) CFB: −4
  A(SF-MPQ) Score: 8
  B(VAS) CFB: 24
  B(VAS) Score: 67
  PBAC CFB: 530
  PBAC Score: 755
[4]
  A(SF-MPQ) CFB: −3
  A(SF-MPQ) Score: 9
  B(VAS) CFB: 27
  B(VAS) Score: 70
  PBAC CFB: 46
  PBAC Score: 271
[5]
  A(SF-MPQ) CFB: −1
  A(SF-MPQ) Score: 11
  B(VAS) CFB: 14
  B(VAS) Score: 57
  PBAC CFB: 58
  PBAC Score: 283
[6]
  A(SF-MPQ) CFB: −3
  A(SF-MPQ) Score: 1
  B(VAS) CFB: −17
  B(VAS) Score: 3
  PBAC CFB: −174
  PBAC Score: 46
[7]
  % Change in Uterine Volume: 21.3%
  A(SF-MPQ) CFB: −4
  A(SF-MPQ) Score: 0
  B(VAS) CFB: −20
  B(VAS) Score: 0
  PBAC CFB: −220
  PBAC Score: 0
  Uterine Volume: 159.1 cm3
[8]
  % Change in Uterine Volume: 12.6%
  Uterine Volume: 147.7 cm3
[9]
  % Change in Uterine Volume: −21.2%
  B(VAS) CFB: 53
  B(VAS) Score: 73
  PBAC CFB: −168
  PBAC Score: 52
  Uterine Volume: 102.2 cm3
[10]
  % Change in Uterine Volume: −24.6%
  A(SF-MPQ) CFB: −4
  A(SF-MPQ) Score: 0
  B(VAS) CFB: −20
  B(VAS) Score: 0
  PBAC CFB: 351
  PBAC Score: 571
  Uterine Volume: 98.9 cm3
[11]
  A(SF-MPQ) CFB: −4
  A(SF-MPQ) Score: 0
  B(VAS) CFB: −20
  B(VAS) Score: 0
  PBAC CFB: −220
  PBAC Score: 0
[12]
  A(SF-MPQ) CFB: 14
  A(SF-MPQ) Score: 0
  B(VAS) CFB: −88
  B(VAS) Score: 0
  PBAC CFB: −532
  PBAC Score: 328
[13]
  % Change in Uterine Volume: −33.8%
  A(SF-MPQ) CFB: −14
  A(SF-MPQ) Score: 0
  B(VAS) CFB: −88
  B(VAS) Score: 0
  PBAC CFB: −860
  PBAC Score: 0
  Uterine Volume: 284.7 cm3
[14]
  A(SF-MPQ) CFB: −14
  A(SF-MPQ) Score: 0
[15]
  A(SF-MPQ) CFB: −14
  A(SF-MPQ) Score: 0
  B(VAS) CFB: −88
  B(VAS) Score: 0
  PBAC Score: 0
[16]
  A(SF-MPQ) CFB: −14
  A(SF-MPQ) Score: 0
  B(VAS) CFB: −88
  B(VAS) Score: 0
[17]
  A(SF-MPQ) CFB: 14
  A(SF-MPQ) Score: 0
  B(VAS) CFB: −88
  B(VAS) Score: 0
  PBAC CFB: −860
  PBAC Score: 0
3 of 4 patients (210/5095, 210/5308, 250/5090), 10 mg
  uterine volume at week 13 compared to baseline: decrease in uterine volume
[18]
  bleeding starting from week 9: did not bleed anymore
  pain starting from 5th week: no pain anymore
Patient 210/5308, 10 mg/day 13 weeks, endometriosis
  PBAC value at week 13: 55
Patients 281/5214, 210/5095, 210/5308, 250/5090, 5 mg or 10 mg
  pain at week 5, 9, 13 compared to baseline: improvement in pain
Patients 281/5214, 210/5095, 250/5090, 5 mg or 10 mg
  PBAC score at the end of treatment (week 13): 0
